These are literature values, as cited in US20230405018A1, “FLUMAZENIL FORMULATIONS FOR SUBCUTANEOUS INJECTION AND METHODS OF TREATMENT USING GABA RECEPTOR MODULATORS” (Bexson Biomedical, Inc., priority 2020, published 2023).

Like-named read-outs stand apart in the source and are kept apart here.

The conditions of data set [1]: reported.
In data set [2] the test system is benzodiazepine withdrawal symptoms.
The conditions of data set [3]: acidic USP flumazenil preparations (pH ~4).

As to “sulfobutyl-ether-beta-cyclodextrin [SBE-β-CD]”, the “Solubility of SBE-β-CD” value in data set [1] is 600 mg/mL.
`CCOC(=O)c1ncn2c1CN(C)C(=O)c1cc(F)ccc1-2` [flumazenil, ethyl 8-fluoro-5,6-dihydro-5-methyl-6-oxo-4H-imidazo[1,5-a][1,4] benzodiazepine-3-carboxylate]: the “Effect on withdrawal, craving and cessation” value in data set [2] (bolus administrations in conjunction with benzodiazepine tapering) was “reduction of benzodiazepine withdrawal symptoms, reduced craving, and increased completion of cessation of benzodiazepines without relapse”. In addition, the “Effect on withdrawal symptoms” value in data set [2] (continuous 2 mg/24 h over 96 h by IV with oxazepam tapering) is “drastically curtail withdrawal symptoms”; in data set [2] (~1-2 mg bolus over several hours, high dose benzodiazepine patients abstinent at least three weeks), “reduce withdrawal symptoms”. Further, the “Systemic availability after first pass hepatic metabolism” value (in vivo) is “less than 25%”. Under “in vivo, po”, the Oral bioavailability entry is “extremely limited and poor”. In addition, the Half-life (rapid metabolism in the liver) was 4 to 11 min. Also, the “Solubility / concentration of flumazenil in USP preparations” value in data set [3] is on record as around 0.1 mg/mL.
